This passage reports GI50 and TGI results from PubChem BioAssay (NCI).

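Following 48 hours of exposure in 96-well plates, responses at five concentrations were used to interpolate endpoints linearly. The concentration for 50% growth inhibition is given as GI50. At the TGI there is no net growth.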 Bounds are passed on as bounds.

Test systems include M14 melanoma; 786-0 renal; CAKI-1 renal; NCI-H522 lung; NCI-H460 lung; SNB-75 CNS; OVCAR-8 ovarian; HCC-2998 colon; CCRF-CEM leukemia.
Common to all, as to assay: NCI tumour cell line growth inhibition, 48 h

Turning to `COc1ccc(Nc2nnc(-c3cc(O)ccc3O)s2)cc1`, the GI50 in the experiment with M14 melanoma was above 50 µM; in the experiment with 786-0 renal, above 50 µM; in the experiment with CAKI-1 renal it was 34.2 µM; with NCI-H522 lung it was 16.1 µM; in the experiment on NCI-H460 lung, 40.4 µM; in the experiment on SNB-75 CNS it was 9.45 µM. Also, the GI50 in the experiment with OVCAR-8 ovarian is 30.4 µM. Further, the TGI in the experiment on M14 melanoma, with 786-0 renal, in the experiment on CAKI-1 renal, with NCI-H522 lung, in the experiment with NCI-H460 lung and with SNB-75 CNS was above 50 µM throughout. This compound registered a TGI with OVCAR-8 ovarian above 50 µM.
Turning to `CN(C)CC[PH+](c1ccccc1)c1ccccc1.CN(C)CC[PH+](c1ccccc1)c1ccccc1.[Cl-].[Pd+2]`, the GI50 is above 100 µM in the experiment with HCC-2998 colon; above 100 µM with M14 melanoma; above 100 µM in the experiment with 786-0 renal; above 100 µM in the experiment on CAKI-1 renal; 73.6 µM in the experiment on NCI-H522 lung; above 100 µM in the experiment with NCI-H460 lung. Besides, the GI50 with CCRF-CEM leukemia was 23.9 µM; in the experiment on OVCAR-8 ovarian, above 100 µM. Besides, the TGI in the experiment on HCC-2998 colon, in the experiment with M14 melanoma, in the experiment with 786-0 renal, with CAKI-1 renal, in the experiment with NCI-H522 lung and in the experiment on NCI-H460 lung was above 100 µM throughout. Further, the TGI with CCRF-CEM leukemia and in the experiment with OVCAR-8 ovarian was above 100 µM in each case.
`Cc1c2c(C#N)nccc2c(C)c2c1c1ccccc1n2Cc1ccccc1`: the TGI with HCC-2998 colon, in the experiment with M14 melanoma, in the experiment with 786-0 renal, with CAKI-1 renal, with NCI-H460 lung and with CCRF-CEM leukemia was above 100 µM throughout. The TGI in the experiment on SNB-75 CNS and in the experiment on OVCAR-8 ovarian was above 100 µM throughout.
On to `C#C[C@]1(O)CCC2C3CCc4cc(O)ccc4C3CC[C@@]21C` (some centres undefined), for which the GI50 in the experiment on HCC-2998 colon is 9.88 µM; with M14 melanoma, 3.87 µM; in the experiment on 786-0 renal it was 5.08 µM; in the experiment with CAKI-1 renal, 9.15 µM; with NCI-H522 lung it was 3.47 µM; in the experiment with NCI-H460 lung, 4.02 µM. The GI50 in the experiment with SNB-75 CNS was 1.93 µM; in the experiment with OVCAR-8 ovarian, 5.8 µM. Besides, the TGI with HCC-2998 colon came out at 63.5 µM; with M14 melanoma, 13.5 µM; in the experiment on 786-0 renal it was 21.9 µM; with CAKI-1 renal, 87 µM; in the experiment on NCI-H522 lung it was 20.5 µM; in the experiment with NCI-H460 lung it was 17.8 µM. Besides, the TGI in the experiment on SNB-75 CNS came out at 6.76 µM; with OVCAR-8 ovarian, 37.2 µM.
For the compound `O=C1/C(=C/c2cccc(Cl)c2Cl)N=C(c2ccccc2)N1C1CC1`, the GI50 was 7.29 µM with 786-0 renal; 14.8 µM in the experiment on CAKI-1 renal; 19.8 µM in the experiment on NCI-H522 lung; 15.3 µM in the experiment with NCI-H460 lung; 6.06 µM in the experiment with SNB-75 CNS; 26.5 µM in the experiment with OVCAR-8 ovarian. Besides, the TGI in the experiment with 786-0 renal is 14.4 µM; in the experiment with CAKI-1 renal, 39.5 µM; in the experiment with NCI-H522 lung it was above 50 µM; in the experiment with NCI-H460 lung, above 50 µM; in the experiment on SNB-75 CNS it was 15.9 µM; with OVCAR-8 ovarian, above 50 µM.
`COc1ccc2c(c1)C(=O)c1c-2c(N2CCN(C(=O)CNCCNCCO)CC2)nc2ccccc12`: the GI50 was 2.58 µM in the experiment on HCC-2998 colon; 1.82 µM in the experiment on M14 melanoma; 1.77 µM with 786-0 renal; 12.8 µM with CAKI-1 renal; 1.81 µM with NCI-H522 lung; 1.94 µM in the experiment with NCI-H460 lung. Besides, the GI50 in the experiment with CCRF-CEM leukemia is 1.98 µM; in the experiment on OVCAR-8 ovarian, 10.2 µM. The TGI with HCC-2998 colon came out at 7.58 µM; with M14 melanoma it was 3.33 µM; in the experiment with 786-0 renal, 3.34 µM; with CAKI-1 renal, 35 µM; in the experiment on NCI-H522 lung, 4.08 µM; in the experiment on NCI-H460 lung, 4.14 µM. Also, the TGI in the experiment on CCRF-CEM leukemia turned out to be 5.22 µM; in the experiment on OVCAR-8 ovarian, 33.8 µM.
As to `Cc1nn(-c2ccc(Cl)cc2)c2nc3c(nc12)C(=O)c1ccccc1-3`, the GI50 in the experiment on HCC-2998 colon was above 100 µM; with M14 melanoma, above 100 µM; in the experiment with 786-0 renal it was 75.3 µM; in the experiment on CAKI-1 renal, above 100 µM; in the experiment with NCI-H522 lung, above 100 µM; in the experiment with CCRF-CEM leukemia, above 100 µM. Also, the GI50 with SNB-75 CNS was 10.9 µM. Also, the TGI in the experiment on HCC-2998 colon, in the experiment with M14 melanoma, in the experiment with 786-0 renal, in the experiment with CAKI-1 renal, in the experiment on NCI-H522 lung and in the experiment on CCRF-CEM leukemia was above 100 µM throughout. Also, the TGI in the experiment with SNB-75 CNS is 46.3 µM.
As to `COc1ccc(C(=O)/C=C/c2cc(-c3cc(OC)c(OC)c(OC)c3)n[nH]2)cc1OC`, the GI50 was 2.13 µM in the experiment with HCC-2998 colon; 1.84 µM in the experiment with M14 melanoma; 1.4 µM in the experiment on 786-0 renal; 2.2 µM in the experiment on CAKI-1 renal; 0.184 µM in the experiment with NCI-H522 lung; 1.41 µM in the experiment with NCI-H460 lung. The GI50 is 0.626 µM in the experiment with CCRF-CEM leukemia and 1.32 µM in the experiment on OVCAR-8 ovarian. Besides, the TGI in the experiment on HCC-2998 colon came to 3.78 µM; in the experiment on M14 melanoma it was 3.69 µM; with 786-0 renal it was 2.86 µM; with CAKI-1 renal, 5.46 µM; in the experiment with NCI-H522 lung it was 0.39 µM; in the experiment with NCI-H460 lung it was 3.33 µM. For the same compound, the values for the TGI in the experiment on CCRF-CEM leukemia and with OVCAR-8 ovarian were 3.93 µM and 2.73 µM, respectively.
As to `COc1cc2c3c(n(C)c(=O)c2cc1OC)-c1cc2c(cc1/C3=C\CN)OCO2`, the GI50 with HCC-2998 colon is 0.0628 µM; with 786-0 renal, 0.314 µM; in the experiment on CAKI-1 renal, 0.132 µM; in the experiment on NCI-H522 lung, 0.835 µM; in the experiment with NCI-H460 lung, 0.0879 µM; in the experiment with CCRF-CEM leukemia, 0.124 µM. The GI50 in the experiment with SNB-75 CNS is 0.154 µM; in the experiment with OVCAR-8 ovarian, 0.774 µM. Besides, the TGI with HCC-2998 colon was 0.589 µM; in the experiment on 786-0 renal it was 17.3 µM; in the experiment on CAKI-1 renal, 1.81 µM; with NCI-H522 lung, above 43.5 µM; with NCI-H460 lung it was above 24.1 µM; with CCRF-CEM leukemia, 6.97 µM. Besides, the TGI was 59.7 µM with SNB-75 CNS and above 51.9 µM in the experiment on OVCAR-8 ovarian.
As to `CCOC(=O)Nc1ccc(-c2nc(-c3cccc(OCCN4CCOCC4)c3)c(-c3ccnc(Br)c3)[nH]2)cc1`, the GI50 in the experiment with HCC-2998 colon was 2.28 µM; with M14 melanoma it was 2.97 µM; in the experiment on 786-0 renal, 1.6 µM; in the experiment with NCI-H522 lung, 3.31 µM; with NCI-H460 lung it was 3.32 µM; with CCRF-CEM leukemia, 2.94 µM. Besides, the GI50 in the experiment on SNB-75 CNS was 1.34 µM; in the experiment on OVCAR-8 ovarian it was 3.73 µM. For the same compound, the TGI is 6.11 µM in the experiment with HCC-2998 colon; 13.7 µM with M14 melanoma; 4.12 µM with 786-0 renal; above 100 µM in the experiment on NCI-H522 lung; above 100 µM with NCI-H460 lung; above 100 µM with CCRF-CEM leukemia. Moreover, the TGI in the experiment on SNB-75 CNS is 6.91 µM; with OVCAR-8 ovarian it was above 100 µM.
